Test results published in US6288091A, “Antiherpes virus compounds and methods for their preparation and use” (Boehringer Ingelheim Ltd., priority 1999, dated 2001).
pEC50, pIC50: −log10 of the molar value. Like-named read-outs stand apart in the source and are kept apart here.

Key:
HSV-1 helicase-primase = biological target: T1, HSV-1 helicase-primase (Human herpesvirus 1, UniProt P10189+P10236); assay: HSV-1 DNA-dependent ATPase assay (inhibition of HSV-1 helicase-primase); assay type: biochemical
T1 construct: made in house; host or cells: Sf21 insect cells triply infected with recombinant baculoviruses (UL5, UL8, UL52)
T1 sequence (P10192 whole entry): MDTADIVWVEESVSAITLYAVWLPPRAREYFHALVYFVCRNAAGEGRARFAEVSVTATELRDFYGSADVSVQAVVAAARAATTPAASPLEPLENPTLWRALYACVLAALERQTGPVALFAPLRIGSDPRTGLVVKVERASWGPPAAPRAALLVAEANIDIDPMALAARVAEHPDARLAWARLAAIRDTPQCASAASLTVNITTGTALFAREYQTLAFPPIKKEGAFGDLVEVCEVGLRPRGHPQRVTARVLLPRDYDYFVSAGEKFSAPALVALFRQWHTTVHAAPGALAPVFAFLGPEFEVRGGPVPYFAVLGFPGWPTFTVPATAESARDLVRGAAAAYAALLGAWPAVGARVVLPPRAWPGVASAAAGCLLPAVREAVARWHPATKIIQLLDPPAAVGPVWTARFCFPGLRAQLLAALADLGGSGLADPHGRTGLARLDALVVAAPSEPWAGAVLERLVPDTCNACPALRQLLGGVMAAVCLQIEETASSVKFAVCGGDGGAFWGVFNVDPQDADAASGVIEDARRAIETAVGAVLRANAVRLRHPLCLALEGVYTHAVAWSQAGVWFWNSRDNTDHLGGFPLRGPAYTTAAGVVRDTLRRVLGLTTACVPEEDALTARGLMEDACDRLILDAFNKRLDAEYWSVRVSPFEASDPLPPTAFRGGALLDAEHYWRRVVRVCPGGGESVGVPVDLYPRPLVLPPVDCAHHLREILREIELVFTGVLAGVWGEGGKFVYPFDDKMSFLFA
T1 sequence (P10236 whole entry): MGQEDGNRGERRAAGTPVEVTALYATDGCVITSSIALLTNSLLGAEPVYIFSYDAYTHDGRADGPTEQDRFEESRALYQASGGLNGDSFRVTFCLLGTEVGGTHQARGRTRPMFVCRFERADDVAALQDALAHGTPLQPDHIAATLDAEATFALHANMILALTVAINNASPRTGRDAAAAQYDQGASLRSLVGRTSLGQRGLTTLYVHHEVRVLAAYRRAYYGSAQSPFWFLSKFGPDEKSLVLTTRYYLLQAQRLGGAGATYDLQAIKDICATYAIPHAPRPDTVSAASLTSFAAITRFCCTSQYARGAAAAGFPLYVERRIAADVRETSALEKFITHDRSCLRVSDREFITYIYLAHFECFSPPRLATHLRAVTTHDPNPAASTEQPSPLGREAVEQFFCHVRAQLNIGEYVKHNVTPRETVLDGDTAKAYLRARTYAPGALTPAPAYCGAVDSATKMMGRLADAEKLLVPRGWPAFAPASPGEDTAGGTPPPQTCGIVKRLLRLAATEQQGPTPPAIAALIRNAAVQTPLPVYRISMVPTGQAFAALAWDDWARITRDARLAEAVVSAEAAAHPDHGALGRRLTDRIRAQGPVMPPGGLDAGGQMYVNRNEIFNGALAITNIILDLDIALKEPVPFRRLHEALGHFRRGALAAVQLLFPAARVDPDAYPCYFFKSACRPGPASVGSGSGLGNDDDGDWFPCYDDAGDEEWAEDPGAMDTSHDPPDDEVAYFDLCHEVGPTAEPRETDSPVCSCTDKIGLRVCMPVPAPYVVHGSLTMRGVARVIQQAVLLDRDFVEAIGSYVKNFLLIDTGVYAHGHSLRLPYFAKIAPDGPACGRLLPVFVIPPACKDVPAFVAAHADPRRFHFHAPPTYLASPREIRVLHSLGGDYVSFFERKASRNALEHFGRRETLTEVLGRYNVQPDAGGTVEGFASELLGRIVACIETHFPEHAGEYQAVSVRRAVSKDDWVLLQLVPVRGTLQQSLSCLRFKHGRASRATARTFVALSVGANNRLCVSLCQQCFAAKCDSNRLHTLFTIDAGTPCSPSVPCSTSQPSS
T1 sequence (P10189 whole entry): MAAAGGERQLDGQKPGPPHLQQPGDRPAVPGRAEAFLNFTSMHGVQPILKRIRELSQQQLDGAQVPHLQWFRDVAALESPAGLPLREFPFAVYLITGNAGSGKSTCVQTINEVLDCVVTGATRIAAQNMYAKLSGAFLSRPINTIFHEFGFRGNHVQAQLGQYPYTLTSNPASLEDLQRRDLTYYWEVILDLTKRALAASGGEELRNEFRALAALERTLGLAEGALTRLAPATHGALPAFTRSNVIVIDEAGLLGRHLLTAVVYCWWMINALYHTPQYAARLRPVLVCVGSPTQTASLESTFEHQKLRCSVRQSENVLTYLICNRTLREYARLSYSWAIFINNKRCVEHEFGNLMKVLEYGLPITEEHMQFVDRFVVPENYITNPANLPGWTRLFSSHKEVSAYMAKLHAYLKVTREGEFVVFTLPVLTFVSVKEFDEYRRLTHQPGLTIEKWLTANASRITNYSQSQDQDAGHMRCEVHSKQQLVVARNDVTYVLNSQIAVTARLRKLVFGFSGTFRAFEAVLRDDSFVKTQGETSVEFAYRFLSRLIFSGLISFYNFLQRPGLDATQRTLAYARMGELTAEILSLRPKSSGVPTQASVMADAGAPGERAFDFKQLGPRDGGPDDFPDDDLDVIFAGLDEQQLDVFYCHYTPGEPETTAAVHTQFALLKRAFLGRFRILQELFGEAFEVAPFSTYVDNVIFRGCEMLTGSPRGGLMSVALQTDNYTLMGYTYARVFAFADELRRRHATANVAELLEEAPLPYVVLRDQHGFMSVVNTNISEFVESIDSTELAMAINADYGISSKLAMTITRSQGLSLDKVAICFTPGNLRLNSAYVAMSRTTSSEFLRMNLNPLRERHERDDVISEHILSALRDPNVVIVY
In short: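 Holoenzyme (UL5/UL8/UL52) expressed in baculovirus-infected Sf21 cells and purified, used at 3 μg/mL with 4 mM ATP and 25 μM primed M13 ssDNA in HEPES pH 7.5, 5.5 mM MgCl2, 3.3% DMSO. Incubated 20 min at 34°. Released phosphate read by malachite green at 650 nm, and activity taken from net absorbance with versus without inhibitor.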

HCMV (strain AD169) = assay: Inhibition of HCMV replication, ELISA assay (Hs-68 cells); assay type: cell-based, Human Cytomegalovirus (HCMV); conditions: read-out: ELISA CMV EC50
Protocol: C) Inhibition of Human Cytomegalovirus (HCMV) Replication
The effect of compounds on the replication of HCMV has been measured by using an ELISA-based assay (ELISA) and a plaque reduction assay (PRA).
Hs-68 cells (ATCC # CRL 1635) were seeded in 96 well microtiter plates at 10,000 cells/well in 100 μL of DMEM medium (Gibco Canada Inc.) supplemented with 10% fetal bovine serum (FBS, Gibco Canada Inc.). The plates were incubated for 3 days at 37° to allow the cells to reach 80-90% confluency prior to the assay.
The medium was removed from wells by aspiration. The cells then were infected at a multiplicity of infection (MOI) of 0.01 PFU/cell with 50 μL of HCMV (strain AD169, ATCC VR-538) in DMEM medium supplemented with 5% heat inactivated FBS (assay medium). The virus was allowed to adsorb to cells for 2 h at 37°. Following viral adsorption, the medium was removed from the wells by aspiration. The cells were washed twice with 200 μL of assay medium to remove unabsorbed virus. The cells were then incubated with or without 100 μL of appropriate concentrations of test reagent in assay medium. After 8 days of incubation at 37°, the extent of viral replication was determined by an ELISA assay which detects the late structural protein p28 of HCMV.
Eight days after infection, the medium was aspirated from the wells. Non-specific binding sites were blocked by adding 200 μL of phosphate buffered saline containing 1% (w/v) bovine serum albumin (blocking buffer) to each well and incubating the plates for 30 min at room temperature. After removal of the blocking buffer by aspiration, the cells were fixed with 100 μL of cold ethanol-acetone solution (95:5) per well. The plates were placed at -20° for 30 min. The plates were washed 4 times with phosphate buffered saline containing 0.05% (v/v) polyoxyethylene sorbitan monolaurate (Tween®). Thereafter, 100 μL of mAb UL99 (Advanced Biotechnologies Inc., #13-130-100) recognizing HCMV protein p28 was added to each wells and plates were incubated for 2 h at room temperature. The plates were washed four times with 200 μL of the above-noted phosphate buffered saline/Tween-20® solution. The cells were then incubated with 100 μL of sheep anti-mouse IgGγ horseradish peroxidase conjugated for 2 h at room temperature. The plates were then washed four times with 200 μL of above-noted phosphate buffered saline/Tween-20® solution. Thereafter, 100 μL of ortho phenylenediamine dihydrochloride (OPD, Gibco Canada Inc.) solution was added to each well and the plates were agitated on a microplate shaker for 30 min in the dark. Color development was monitored at 450 nm using a microplate spectrophotometer.
The SAS program was used to calculate the % inhibition of viral replication and to generate EC50 values.
The EC50 values obtained according to this assay method for certain thiazolylphenyl derivatives of this invention are listed in the following tables under the heading ELISA CMV.

HSV-1 strain F or KOS = assay: Inhibition of herpes simplex virus (HSV-1) replication in cell culture (BHK-21 cells, glycoprotein C ELISA); assay type: cell-based
In short: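 BHK-21 clone 13 cells infected with HSV-1 F or KOS at MOI 0.05 PFU/cell for 1 h at 37°, washed, then treated with compound in α-MEM/2% FBS for 24 h. Late glycoprotein C quantified by ELISA (mAb C11, HRP/OPD, 450 nm); EC50 from % inhibition.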

[1] = Human betaherpesvirus 5, AD169, Hs68, Group 1 Table 3 entries
[2] = Human alphaherpesvirus 1, BHK-21, Group 1 Table 3 entries
[3] = Human betaherpesvirus 5, AD169, Hs68, Group 1 Table 1 entries
[4] = Human alphaherpesvirus 1, BHK-21, Group 1 Table 1 entries
[5] = Human betaherpesvirus 5, AD169, Hs68, Group 1 Table 5 entries
[6] = Human alphaherpesvirus 1, BHK-21, Group 1 Table 5 entries

Q: How did the pIC50 (HSV-1 helicase-primase; Group 1 Table 3 entries) turn out when `CN(C)c1nc(-c2ccc(NC(=O)CN(Cc3ccccc3)C(=O)c3ccncc3)cc2)cs1` [Example 14] was run?
A: < 4.30

Q: What about the pEC50 (HCMV (strain AD169); [1]) of the same compound?
A: 4.70

Q: And the pEC50 (HSV-1 strain F or KOS; [2])?
A: 6.30

Q: `CN(C)c1nc(-c2ccc(NC(=O)CNCC3CCCCC3)cc2)cs1` [Example 13] was tested. Which pIC50 (HSV-1 helicase-primase; Group 1 Table 3 entries) did it give?
A: < 4.30

Q: What about the pEC50 (HCMV (strain AD169); [1]) of the same compound?
A: 4.44

Q: And the pEC50 (HSV-1 strain F or KOS; [2])?
A: < 5.40

Q: `CC(C)(C)OC(=O)N(CC(=O)Nc1ccc(-c2csc(N)n2)cc1)Cc1ccc(Cl)cc1` [Example 91] was tested. Which pIC50 (HSV-1 helicase-primase; Group 1 Table 1 entries) did it give?
A: 7.15

Q: And the pEC50 (HCMV (strain AD169); [3])?
A: 5.80

Q: What about the pEC50 (HSV-1 strain F or KOS; [4]) of the same compound?
A: 7.60

Q: `Nc1nc(-c2ccc(NC(=O)CNCCN3CCOCC3)cc2)cs1` [Example 14] was tested. Which pIC50 (HSV-1 helicase-primase; Group 1 Table 1 entries) did it give?
A: 5.11

Q: And the pEC50 (HCMV (strain AD169); [3])?
A: 4.17

Q: What about the pEC50 (HSV-1 strain F or KOS; [4]) of the same compound?
A: 5.49

Q: `C[C@@H](c1ccccc1)N(C)CCC(=O)Nc1ccc(-c2csc(N)n2)cc1` [Example 28] was tested. Which pEC50 (HCMV (strain AD169); Human betaherpesvirus 5, AD169, Hs68, Group 1 Table 2 entries) did it give?
A: 4.74

Q: And the pEC50 (HSV-1 strain F or KOS; Human alphaherpesvirus 1, BHK-21, Group 1 Table 2 entries)?
A: 5.70

Q: What does the source list for `CN(C)c1nc(-c2ccc(NC(=O)CN(CC3CCCCC3)C(=O)OC(C)(C)C)cc2)cs1` [Example 17]?
A: pIC50 (HSV-1 helicase-primase; Group 1 Table 3 entries): < 4.30; pEC50 (HCMV (strain AD169); [1]): 5.40; pEC50 (HSV-1 strain F or KOS; [2]): < 5.10

Q: `CN(C(=O)C1CCCCC1)[C@@H](Cc1ccccc1)C(=O)Nc1ccc(-c2csc(N)n2)cc1` [Example 5] was tested. Which pIC50 (HSV-1 helicase-primase; Group 1 Table 5 entries) did it give?
A: 6.66

Q: And the pEC50 (HCMV (strain AD169); [5])?
A: 5.02

Q: What about the pEC50 (HSV-1 strain F or KOS; [6]) of the same compound?
A: 6.82

Q: What does the source list for `C[C@@H](C1CCCCC1)N(CC(=O)Nc1ccc(-c2csc(N)n2)cc1)C(=O)OC(C)(C)C` [Example 108]?
A: pEC50 (HCMV (strain AD169); [3]): 5.17; pEC50 (HSV-1 strain F or KOS; [4]): 6.41

Q: With `CC(C)(C)OC(=O)N[C@@H](CC1CCCCC1)C(=O)Nc1ccc(-c2csc(N)n2)cc1` [Example 24] as the compound, how does the pIC50 (HSV-1 helicase-primase; Group 1 Table 5 entries) read?
A: 7.77

Q: What about the pEC50 (HCMV (strain AD169); [5]) of the same compound?
A: 5.09

Q: And the pEC50 (HSV-1 strain F or KOS; [6])?
A: 7.37

Q: How did the pIC50 (HSV-1 helicase-primase; Group 1 Table 1 entries) turn out when `CC(C)(C)OC(=O)N(CCc1ccccn1)CC(=O)Nc1ccc(-c2csc(N)n2)cc1` [Example 101] was run?
A: 5.66

Q: What about the pEC50 (HCMV (strain AD169); [3]) of the same compound?
A: 5.72

Q: And the pEC50 (HSV-1 strain F or KOS; [4])?
A: 6.13

Q: How did the pIC50 (HSV-1 helicase-primase; Group 1 Table 3 entries) turn out when `Cc1nc(-c2ccc(NC(=O)CN(Cc3ccccc3)C(=O)C3CCCCC3)cc2)cs1` [Example 4] was run?
A: 6.72

Q: What about the pEC50 (HCMV (strain AD169); [1]) of the same compound?
A: 4.92

Q: And the pEC50 (HSV-1 strain F or KOS; [2])?
A: 6.92

Q: What does the source list for `CC1(C(=O)N(CC(=O)Nc2ccc(-c3csc(N)n3)cc2)Cc2ccccc2)CCCCC1` [Example 35]?
A: pIC50 (HSV-1 helicase-primase; Group 1 Table 1 entries): 7.46; pEC50 (HCMV (strain AD169); [3]): 5.09; pEC50 (HSV-1 strain F or KOS; [4]): 8.22

Q: How did the pIC50 (HSV-1 helicase-primase; Group 1 Table 5 entries) turn out when `C[C@@H](C(=O)Nc1ccc(-c2csc(N)n2)cc1)N(Cc1ccccc1)C(=O)OC(C)(C)C` [Example 16] was run?
A: 6.34

Q: What about the pEC50 (HCMV (strain AD169); [5]) of the same compound?
A: 5.55

Q: And the pEC50 (HSV-1 strain F or KOS; [6])?
A: 7.10

Q: Which results are given for `C[C@H](c1ccccc1)N(CC(=O)Nc1ccc(-c2csc(N)n2)cc1)C(=O)OC(C)(C)C` [Example 88]?
A: pIC50 (HSV-1 helicase-primase; Group 1 Table 1 entries): 5.62; pEC50 (HCMV (strain AD169); [3]): < 4.33; pEC50 (HSV-1 strain F or KOS; [4]): 5.92

Q: What does the source list for `CC(C)(C)OC(=O)N1CCC(C(=O)N(CC(=O)Nc2ccc(-c3csc(N)n3)cc2)Cc2ccccc2)CC1` [Example 40]?
A: pIC50 (HSV-1 helicase-primase; Group 1 Table 1 entries): 5.77; pEC50 (HCMV (strain AD169); [3]): 4.60; pEC50 (HSV-1 strain F or KOS; [4]): 6.15

Q: How did the pEC50 (HCMV (strain AD169); [3]) turn out when `CC(C)CN(CC(=O)Nc1ccc(-c2csc(N)n2)cc1)C(=O)OC(C)(C)C` [Example 112] was run?
A: 5.49

Q: And the pEC50 (HSV-1 strain F or KOS; [4])?
A: 5.92
